Experiment [1] concerns the target PD-L1 (Homo sapiens, UniProt Q9NZQ7). In words: Immunofluorescence microscopy of PD-L1 in MCF-7. In kind it is cell-based. Set-up: Alexa Fluor® 647 Rabbit monoclonal Anti-PD-L1 (ab215251); endogenous in cells; host or cells: MCF-7. Conditions: MCF-7, 24 h of treatment. An excerpt: We also observed the effect of triazole derivatives 3, 5 and 7 on both targets in MCF-7 by immunofluorescence microscopy (see Figure 2). We stained both targets with anti-PD-L1 conjugated to AlexaFluor®647 (red in Figure 2), as well as anti-c-Myc conjugated to fluorescein (green in Figure 2), to determine the amount of both targets. The nucleus was stained with Hoechst (blue in Figure 2).
We observed that in the DMSO control, c-Myc was located in the nucleus of the cell and the nucleus membrane nearby, and PD-L1 was preferentially positioned in the membrane or cytosol, favoring the contact between surrounding cells.
For immunofluorescence microscopy of the microtubule network, […] cells were plated on cover glass and incubated with the selected compounds. Cells were then fixed in 4% formaldehyde (in PBS pH 7.4) for 20 min at room temperature and permeabilized with PBS-Triton X-100 0.5% for 1 min at room temperature. Direct immunostaining was carried out for 1 h at room temperature with FITC Mouse monoclonal Anti-c-Myc (ab223913) and Alexa Fluor® 647 Rabbit monoclonal Anti-PD-L1 (ab215251). Then, cells were washed in PBS, and cover glasses were mounted with a drop of ProLong® antifade solution (Invitrogen). The cytoskeleton was imaged by a confocal laser scanning microscope (CLSM) Leica SP5 with a Leica inverted microscope, equipped with 20x objective. Each image was recorded with the CLSM’s spectral mode selecting specific domains of the emission spectrum. The FITC fluorophore was excited at 488 nm with an argon laser, and its fluorescence emission was collected between 496 nm and 535 nm.

Experiment [2] relates to MCF-7. In words: MCF-7 cell viability in co-culture with Jurkat T cells (flow cytometry count). In kind it is cell-based, human. Particulars: 24 h; for viability at 100 µM: Homo sapiens, MCF7, MCF-7/Jurkat T co-culture, IFN-γ stimulated, read-out: percentage of living MCF-7 cells relative to non-treated co-cultures; for inhibition rate of MCF-7 cell viability: co-cultured with Jurkat T cells, 100 μM. Put shortly: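 HT-29, MCF-7 or A-549 cells in IFN-γ (10 ng/mL) medium were co-cultured with 5 × 10^5 Jurkat T cells per well and 100 µM compound (DMSO control) for 24 h. Jurkat cells from the supernatant and trypsinized cancer cells were PFA-fixed and counted by flow cytometry. Living cells were expressed as % of untreated co-culture.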
A general note: A flow cytometer gives signals particle by particle.

The test system of experiment [3] is c-Myc gene expression. In words: c-Myc gene expression by RT-qPCR in MCF-7. In kind it is cell-based, human. Particulars: MCF-7, 100 µM, 48 h, control = 100. On the procedure: We also studied the effect of compounds 3, 5, and 7 on both c-Myc and PD-L1 gene expression by RT-qPCR. For this study, we treated MCF-7 cells with 100 µM of the abovementioned compounds, and DMSO was used as a negative control and BMS-8 as a reference compound. After 48 h, cells were lysated, and after the extraction of their mRNA, a RT-pPCR assay was performed as described in the Experimental section.
MCF-7 cells at 70–80% confluence were collected, and 1.5 × 10^5 cells were placed in a six-well plate in 1.5 mL of medium. After 24h, cells were incubated with the corresponding compounds for 48 h. Cells were collected, and the total cellular RNA from MCF-7 cells was isolated using the Ambion RNA extraction kit according to the manufacturer’s instructions. The cDNA was synthesized by MMLV-RT with […] of extracted RNA and oligo(dT)15 according to the manufacturer’s instructions. Genes were amplified by a thermal cycler and StepOnePlus™ TaqMan® probes. TaqMan® Gene Expression Master Mix Fast containing the appropriate buffer for the amplification conditions, dNTPs, thermostable DNA polymerase enzymes, and a passive reference probe was used. To amplify each of the genes, the predesigned primers sold by Life Technologies TaqMan® Gene Expression Assays, Hs99999903-m1 (β-actin), Hs00153408-m1 (c-Myc), and Hs00204257-m1, (PD-L1) were used.
Background: In qPCR the cycle at which signal appears reflects the starting amount.

Experiment [4] deals with T1, membrane PD-L1 (Homo sapiens, UniProt Q9NZQ7).
T1 construct: Alexa Fluor® 647 Rabbit monoclonal Anti-PD-L1 (ab215251); endogenous in cells; host or cells: HT-29, MCF-7, A-549 (A17: MCF-7 only; A14: IFN-gamma-stimulated cancer cells co-cultured with Jurkat T cells)
In words: Membrane PD-L1 relative quantification by flow cytometry in cancer cells co-cultured with Jurkat T cells. In kind it is cell-based. Particulars: 24 h; for remaining activity at 100 µM / inhibition at 100 µM: Jurkat; for remaining activity at 100 µM: relative to non-treated co-cultures, read-out: % PDL1 (membrane); for inhibition at 100 µM: read-out: membrane PD-L1 inhibition rate. Put shortly:
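Interferon γ-stimulated human cancer cells co-cultured with Jurkat T cells and treated 24 h with compounds at 100 μM. Cells then fixed in 4% paraformaldehyde and co-stained with Alexa Fluor 647 anti-PD-L1 and FITC anti-VEGFR-2. Membrane levels quantified together by flow cytometry.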

[5] abbreviates: A549 co-cultured with Jurkat T cells.
Where [6] appears, read: HT29 co-cultured with Jurkat T cells.
The mark [7] stands for this setting: MCF7 co-cultured with Jurkat T cells.
[8] abbreviates: MCF-7 co-cultured with Jurkat T cells.

SMILES strings stand for the structures. Like-named read-outs stand apart in the source and are kept apart here.

PD-L1, sequence (Q9NZQ7 19-290): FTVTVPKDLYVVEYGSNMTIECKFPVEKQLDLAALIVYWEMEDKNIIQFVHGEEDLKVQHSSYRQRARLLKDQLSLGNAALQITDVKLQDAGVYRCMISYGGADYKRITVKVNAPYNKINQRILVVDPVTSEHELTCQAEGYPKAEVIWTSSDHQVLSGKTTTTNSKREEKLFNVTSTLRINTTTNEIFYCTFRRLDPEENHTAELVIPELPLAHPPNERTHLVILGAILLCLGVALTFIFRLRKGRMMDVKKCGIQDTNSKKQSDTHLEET
T1 sequence (Q9NZQ7 19-290): as above

As to `COc1ccc(C(OCCc2ccc(CCn3cc(-c4cccc(Br)c4)nn3)cc2)(c2ccccc2)c2ccc(OC)cc2)cc1` [Compound 5, 1-(4-(2-(bis(4-methoxyphenyl)(phenyl)methoxy)ethyl)phenethyl)-4-(3-bromophenyl)-1H-1,2,3-triazole], the “PD-L1 localisation (confocal images)” value in experiment [1] is “accumulated in the interface of cells and in the nucleus”. In addition, the viability at 100 µM in experiment [2] was 37 ± 5%. Also, the “% c-Myc gene expression” value in experiment [3] is 33 ± 5%. Further, the results for the remaining activity at 100 µM in experiment [4] (setting [5]), in experiment [4] (setting [6]) and in experiment [4] (setting [7]) were 115%, 153 ± 17% and 43 ± 6%, respectively. Moreover, the inhibition at 100 µM in experiment [4] (setting [8]) fell in the range of 60 to 70%.

Turning to `COc1ccc(C(OCCc2ccc(CCn3cc(-c4ccc(Br)cc4)nn3)cc2)(c2ccccc2)c2ccc(OC)cc2)cc1` [Compound 3, 1-(4-(2-(bis(4-methoxyphenyl)(phenyl)methoxy)ethyl)phenethyl)-4-(4-bromophenyl)-1H-1,2,3-triazole], the “PD-L1 localisation (confocal images)” value in experiment [1] was “accumulates in the cytosol”. Besides, the viability at 100 µM in experiment [2] is 45 ± 4%. The “inhibition rate of MCF-7 cell viability” value in experiment [2] was “around 60%”. Besides, the “% c-Myc gene expression” value in experiment [3] came out at 50 ± 7%. Besides, the remaining activity at 100 µM in experiment [4] (setting [5]) is 77 ± 4%; in experiment [4] (setting [6]) it was 80 ± 2%; in experiment [4] (setting [7]), 52 ± 9%. In addition, the results for the inhibition at 100 µM in experiment [4] (A-549 co-cultured with Jurkat T cells), in experiment [4] (HT-29 co-cultured with Jurkat T cells) and in experiment [4] (setting [8]) were roughly 20%, roughly 20% and 60 to 70%, respectively. In addition, the “membrane PD-L1 inhibition rate” value in experiment [4] (MCF-7 co-cultured with Jurkat T cells, 100 μM) is recorded as “half”.

With `Cc1c(COc2ccc(CN3CCCCC3C(=O)O)cc2Br)cccc1-c1ccccc1` (centres unmarked) [BMS-8, reference compound], the “PD-L1 localisation (confocal images)” value in experiment [1] was “located preferentially in the nucleus”. In addition, the viability at 100 µM in experiment [2] came to 57 ± 7%. In experiment [3], the “% c-Myc gene expression” value turned out to be 30 ± 10%. The figures for the remaining activity at 100 µM in experiment [4] (setting [5]), in experiment [4] (setting [6]) and in experiment [4] (setting [7]) were 103 ± 3%, 105 ± 3% and 97 ± 33%, respectively.

As for `COc1ccc(C(OCCc2ccc(CCn3cc(-c4ccccc4Br)nn3)cc2)(c2ccccc2)c2ccc(OC)cc2)cc1` [Compound 7, 1-(4-(2-(bis(4-methoxyphenyl)(phenyl)methoxy)ethyl)phenethyl)-4-(2-bromophenyl)-1H-1,2,3-triazole], the “PD-L1 localisation (confocal images)” value in experiment [1] is reported as “preferentially in cytosol”. In addition, in experiment [2], the viability at 100 µM is 41 ± 4%. In experiment [2], the “inhibition rate of MCF-7 cell viability” value is on record as “around 60%”. The “% c-Myc gene expression” value in experiment [3] is on record as 12 ± 5%. Besides, the values for the remaining activity at 100 µM in experiment [4] (setting [5]), in experiment [4] (setting [6]) and in experiment [4] (setting [7]) were 73 ± 6%, 89 ± 4% and 50 ± 14%, respectively. Further, the inhibition at 100 µM in experiment [4] (setting [8]) fell in the range of 60 to 70%.

As a reminder, the inhibition is the percentage by which the read-out fell short of the control.

The values are drawn from PMC9917184, “Synthesis and Biological Evaluation of Potential Oncoimmunomodulator Agents” (International Journal of Molecular Sciences, 2023).
